Literature values as cited in patent publication US20180344676A1, “TOPICAL ANALGESIC PAIN RELIEF FORMULATIONS, MANUFACTURE AND METHODS OF USE THEREOF” (priority 2015, published 2018).

Legend:
hTRPA1 = hTRPA1 (Homo sapiens, UniProt O75762); conditions: for inhibition of hTRPA1 activation by menthol and allyl isothiocyanate: compound at 1 mM, menthol 1 mM and allyl isothiocyanate 10 uM
human TRPM8 (hTRPM8) = human TRPM8 (hTRPM8) (Homo sapiens, UniProt Q7Z2W7)
hTRPV1 = hTRPV1 (Homo sapiens, UniProt Q8NER1)
Sequence of hTRPV1 (Q8NER1 whole entry): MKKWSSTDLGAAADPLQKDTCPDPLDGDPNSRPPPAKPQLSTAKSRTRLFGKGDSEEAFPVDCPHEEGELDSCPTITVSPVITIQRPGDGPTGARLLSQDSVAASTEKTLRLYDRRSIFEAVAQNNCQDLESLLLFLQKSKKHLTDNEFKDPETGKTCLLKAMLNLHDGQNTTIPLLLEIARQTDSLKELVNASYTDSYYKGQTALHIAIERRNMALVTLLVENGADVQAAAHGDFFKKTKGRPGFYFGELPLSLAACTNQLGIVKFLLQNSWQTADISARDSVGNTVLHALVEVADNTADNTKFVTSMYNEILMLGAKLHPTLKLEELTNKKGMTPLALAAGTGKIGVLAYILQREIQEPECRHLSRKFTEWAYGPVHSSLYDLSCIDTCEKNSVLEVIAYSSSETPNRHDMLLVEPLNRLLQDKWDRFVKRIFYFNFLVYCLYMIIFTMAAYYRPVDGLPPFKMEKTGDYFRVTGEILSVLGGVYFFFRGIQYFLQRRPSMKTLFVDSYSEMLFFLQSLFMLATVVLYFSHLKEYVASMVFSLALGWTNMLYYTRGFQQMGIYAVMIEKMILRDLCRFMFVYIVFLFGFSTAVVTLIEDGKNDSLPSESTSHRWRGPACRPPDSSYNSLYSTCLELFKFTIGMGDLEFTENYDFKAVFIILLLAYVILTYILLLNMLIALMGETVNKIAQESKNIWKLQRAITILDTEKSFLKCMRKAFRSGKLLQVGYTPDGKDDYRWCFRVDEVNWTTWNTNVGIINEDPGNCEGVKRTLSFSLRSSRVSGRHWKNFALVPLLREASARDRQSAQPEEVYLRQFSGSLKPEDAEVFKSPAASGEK

hTRPV2 = target: T1, hTRPV2 (Homo sapiens, UniProt Q9Y5S1)
T1 sequence (Q9Y5S1 1-764): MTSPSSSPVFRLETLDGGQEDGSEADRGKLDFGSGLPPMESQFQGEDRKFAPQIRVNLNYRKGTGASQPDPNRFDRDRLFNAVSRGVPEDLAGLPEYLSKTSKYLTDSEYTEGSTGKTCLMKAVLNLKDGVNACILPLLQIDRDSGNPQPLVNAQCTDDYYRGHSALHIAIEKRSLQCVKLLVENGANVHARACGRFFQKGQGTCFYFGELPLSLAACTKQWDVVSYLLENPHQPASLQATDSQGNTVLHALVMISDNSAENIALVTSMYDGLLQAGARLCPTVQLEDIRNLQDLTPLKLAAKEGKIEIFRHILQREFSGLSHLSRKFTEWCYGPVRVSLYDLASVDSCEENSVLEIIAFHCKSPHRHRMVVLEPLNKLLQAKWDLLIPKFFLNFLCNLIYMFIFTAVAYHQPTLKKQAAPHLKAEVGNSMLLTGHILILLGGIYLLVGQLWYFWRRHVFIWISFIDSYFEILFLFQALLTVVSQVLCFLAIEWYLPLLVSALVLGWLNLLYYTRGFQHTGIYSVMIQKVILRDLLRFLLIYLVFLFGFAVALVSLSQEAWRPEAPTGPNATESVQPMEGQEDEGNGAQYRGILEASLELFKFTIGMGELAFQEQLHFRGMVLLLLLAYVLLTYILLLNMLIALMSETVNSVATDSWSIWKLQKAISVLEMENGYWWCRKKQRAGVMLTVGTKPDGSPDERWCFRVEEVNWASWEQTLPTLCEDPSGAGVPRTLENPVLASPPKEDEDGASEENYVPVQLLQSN

pain and itch responses = conditions: mice

Sequence of hTRPA1 (O75762 whole entry): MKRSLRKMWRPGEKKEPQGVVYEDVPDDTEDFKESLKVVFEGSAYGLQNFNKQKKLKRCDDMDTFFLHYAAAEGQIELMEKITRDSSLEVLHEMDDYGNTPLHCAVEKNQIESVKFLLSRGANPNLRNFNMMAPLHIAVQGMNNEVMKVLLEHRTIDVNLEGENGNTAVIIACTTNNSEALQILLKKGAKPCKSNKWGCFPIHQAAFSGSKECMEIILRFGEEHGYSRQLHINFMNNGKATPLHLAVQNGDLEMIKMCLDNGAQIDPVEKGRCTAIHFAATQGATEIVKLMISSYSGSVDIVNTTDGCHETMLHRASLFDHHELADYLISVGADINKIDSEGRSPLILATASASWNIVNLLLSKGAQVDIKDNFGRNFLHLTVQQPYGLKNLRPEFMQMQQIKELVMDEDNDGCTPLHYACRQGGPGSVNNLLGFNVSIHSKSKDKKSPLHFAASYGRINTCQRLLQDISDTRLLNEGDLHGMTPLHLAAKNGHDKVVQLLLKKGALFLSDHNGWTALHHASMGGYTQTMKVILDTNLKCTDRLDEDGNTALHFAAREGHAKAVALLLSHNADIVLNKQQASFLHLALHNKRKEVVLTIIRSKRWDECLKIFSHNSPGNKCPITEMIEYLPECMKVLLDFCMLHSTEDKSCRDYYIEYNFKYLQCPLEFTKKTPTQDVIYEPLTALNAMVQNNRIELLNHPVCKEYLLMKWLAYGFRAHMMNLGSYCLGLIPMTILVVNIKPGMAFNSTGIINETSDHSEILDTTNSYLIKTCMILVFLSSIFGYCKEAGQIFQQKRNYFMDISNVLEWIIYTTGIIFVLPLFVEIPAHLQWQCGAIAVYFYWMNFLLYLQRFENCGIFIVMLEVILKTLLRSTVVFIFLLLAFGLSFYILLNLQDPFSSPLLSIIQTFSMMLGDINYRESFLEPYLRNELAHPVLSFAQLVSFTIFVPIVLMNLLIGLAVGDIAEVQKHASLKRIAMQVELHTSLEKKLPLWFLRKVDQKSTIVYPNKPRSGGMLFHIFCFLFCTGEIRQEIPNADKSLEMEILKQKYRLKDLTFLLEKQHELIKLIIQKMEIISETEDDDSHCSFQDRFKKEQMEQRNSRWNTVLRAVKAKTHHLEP
Sequence of human TRPM8 (hTRPM8) (Q7Z2W7 whole entry): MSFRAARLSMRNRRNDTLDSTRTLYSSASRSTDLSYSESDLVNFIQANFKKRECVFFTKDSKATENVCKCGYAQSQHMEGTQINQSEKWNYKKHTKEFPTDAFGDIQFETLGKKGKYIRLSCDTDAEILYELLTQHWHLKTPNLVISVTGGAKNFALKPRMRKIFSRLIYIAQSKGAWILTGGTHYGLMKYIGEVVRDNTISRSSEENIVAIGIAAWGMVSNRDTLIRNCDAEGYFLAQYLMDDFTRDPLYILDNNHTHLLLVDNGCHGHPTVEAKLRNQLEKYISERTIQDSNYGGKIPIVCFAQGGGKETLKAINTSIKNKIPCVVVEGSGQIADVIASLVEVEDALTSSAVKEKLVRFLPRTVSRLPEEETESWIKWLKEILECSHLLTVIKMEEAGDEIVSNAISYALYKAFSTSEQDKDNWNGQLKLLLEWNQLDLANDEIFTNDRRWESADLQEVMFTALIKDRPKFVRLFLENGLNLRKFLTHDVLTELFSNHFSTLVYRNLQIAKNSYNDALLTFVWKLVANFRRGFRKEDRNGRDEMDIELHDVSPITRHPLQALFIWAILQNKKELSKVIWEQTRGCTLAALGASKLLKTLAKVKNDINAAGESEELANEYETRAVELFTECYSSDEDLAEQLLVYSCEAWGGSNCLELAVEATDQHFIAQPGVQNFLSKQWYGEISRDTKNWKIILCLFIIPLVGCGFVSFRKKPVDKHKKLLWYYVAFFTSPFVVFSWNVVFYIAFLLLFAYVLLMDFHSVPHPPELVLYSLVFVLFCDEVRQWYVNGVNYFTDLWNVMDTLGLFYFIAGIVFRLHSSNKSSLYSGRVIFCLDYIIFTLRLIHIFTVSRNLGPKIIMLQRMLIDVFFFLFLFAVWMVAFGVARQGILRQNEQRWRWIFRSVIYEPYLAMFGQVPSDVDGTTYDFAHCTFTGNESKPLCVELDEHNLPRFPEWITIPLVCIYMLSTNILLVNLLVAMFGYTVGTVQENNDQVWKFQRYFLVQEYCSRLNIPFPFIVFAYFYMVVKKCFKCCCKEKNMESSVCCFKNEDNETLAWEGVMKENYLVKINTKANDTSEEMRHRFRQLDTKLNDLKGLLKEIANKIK

Row | activation of hTRPA1 (hTRPA1) | inhibition of hTRPA1 activation by menthol and allyl isothiocyanate (hTRPA1) | SMILES | further results
1 | did not activate | completely inhibited | CC1(C)C2CCC1(C)C(O)C2 (stereo not shown) [borneol] | 
2 | did not activate | completely inhibited | CC1(C)[C@@H]2CC[C@@]1(C)[C@](C)(O)C2 [2-methylosoborneol] | 
3 | did not activate |  | CC12CCC(CC1=O)C2(C)C (stereo not shown) [camphor] | 
4 | did not activate |  | O=C1CC2CC[C@H]1C2 [norcamphor] | 

The next lines start with the compound.

Row | SMILES | activation of hTRPA1 (hTRPA1) | inhibition of hTRPA1 activation by menthol and allyl isothiocyanate (hTRPA1) | further results
5 | CC12CCC(C1)C(C)(C)C2O (stereo not shown) [fenchyl alcohol] | did not activate | completely inhibited | 
6 | CC12CCC(CC1)C(C)(C)O2 [1,8-cineole] |  |  | activation of human TRPM8 (human TRPM8 (hTRPM8)): activates; activation of hTRPV1 (hTRPV1): did no( activate; activation of hTRPV2 (hTRPV2): did no( activate
7 | CCCCCCCC/C=C\CCCCCCCC(=O)O [oleic acid] |  |  | TRPV1 activity (TRPV1): inhibited; pain and itch responses (pain and itch responses): inhibited
